The values below are quoted from earlier work in the PKSmart pharmacokinetics tables (Seal et al. 2025).

The term MRT denotes the average time that molecules of a dose stay in the body. What is called Vd is the apparent volume that relates the amount in the body to the concentration in plasma or blood. By clearance is commonly meant a measure of how efficiently the substance is removed, as volume per time. The term half-life denotes the time in which the quantity being followed falls by half. A word on the fraction unbound: it is the share of the substance not bound to proteins or other matrix.

A short description of this series: Lombardo, Berellini, Obach 2018, Drug Metab Dispos 46:1466, doi 10.1124/dmd.118.082966. Conditions: human; for MRT / Vd / clearance / half-life: in vivo, iv; for fraction unbound: plasma.

*1 amine or outer side, *2 acyl side, *3 side chain or, on linkers, in order; H or OH if unused. Where a SMILES comes first, the peptide text is derived from it. Bridges are numbered along the chain shown (N, C = ends). [ ]: non-standard residue; d: D form. The star is where a group is joined. ξ: configuration not given here. X2 = CC[C@H](C)[C@@H](N[*:1])[C@@H](O)CC(=O)OC(C(=O)C(C)C(=O)[*:2])C(C)C; ξThr(3R)(O-yl) = C[C@@H](O[*:3])C(N[*:1])C(=O)[*:2]; ξNMeY = CNC(Cc1ccc(O)cc1)C(=O)O; ξNMeL = CNC(CC(C)C)C(=O)O; Pyruvoyl = CC(=O)C(=O)*; ξL = CC(C)CC(N)C(=O)O; ξP = O=C(O)C1CCCN1

For the compound `CC[C@H](O)[C@@H](C)[C@H]1O[C@@H]1C[C@@](C)(O)/C=C/C=C(\C)[C@H]1OC(=O)C[C@H](O)CC[C@@](C)(O)[C@@H](OC(=O)N2CCN(C3CCCCCC3)CC2)C=C[C@@H]1C`, the MRT is 3.5 h, the Vd was 10.1 L/kg, the clearance was 47.9 mL/min/kg and the half-life is 9.2 h.
As to `CC(=O)OC1=C2C(C)[C@@H](OC(=O)C(O)C(NC(=O)c3ccccc3)c3ccccc3)C[C@@](O)([C@@H](OC(=O)c3ccccc3)[C@@H]3[C@]4(OC(C)=O)CO[C@@H]4C[C@H](O)[C@@]3(C)C1=O)C2(C)C` (some centres undefined), the MRT was 7.8 h, the Vd was 3 L/kg, the clearance was 6.4 mL/min/kg and the half-life is 11 h. Moreover, the fraction unbound is 0.12.
Consider `Nc1ccn([C@@H]2O[C@H](CO)C[C@@H]2F)c(=O)n1`, for which the MRT was 1.9 h, the Vd is 0.7 L/kg, the clearance was 6.1 mL/min/kg and the half-life was 1.8 h. Further, the fraction unbound was 1.
With `COCCN1CCN(Cc2ccc(-c3n[nH]c4c3C(=O)c3c(NC(=O)NN5CCOCC5)cccc3-4)cc2)CC1`, the MRT was 8.5 h, the Vd was 5.9 L/kg, the clearance was 11.5 mL/min/kg and the half-life is 9.9 h.
Take `COC(=O)CC[C@@H]1N=C(c2ccccn2)c2cc(Br)ccc2-n2c(C)cnc21`: the MRT was 0.5 h, the Vd is 0.44 L/kg, the clearance was 15 mL/min/kg and the half-life was 0.75 h.
Take `CN1CCOC(c2ccccc2)c2ccccc2C1` (centres undefined): the MRT was 8.1 h, the Vd was 5.6 L/kg, the clearance is 12 mL/min/kg and the half-life is 5 h.
Regarding `C[C@@]12CCCCC[C@@H](Cc3ccc(O)cc31)[C@@H]2N`, the MRT was 4.6 h, the Vd was 5.6 L/kg, the clearance was 27.5 mL/min/kg and the half-life was 3.9 h. The free fraction (fraction unbound) was 0.08.
As to `CC1(C)O[C@@H]2C[C@H]3[C@@H]4C[C@H](F)C5=CC(=O)C=C[C@@]5(C)[C@H]4[C@@H](O)C[C@]3(C)[C@]2(C(=O)CO)O1`, the MRT is 1.89 h, the distribution volume (Vd) is 1.08 L/kg, the clearance was 9.5 mL/min/kg and the half-life was 1.68 h.
`CC1(C)SC2C(NC(=O)C(NC(=O)c3cnc4cccnc4c3O)c3ccccc3)C(=O)N2C1C(=O)O` (centres undefined): the mean residence time MRT is 1.4 h, the Vd was 0.16 L/kg, the clearance was 1.9 mL/min/kg and the half-life was 1.2 h. Moreover, the fraction unbound was 0.1.
Regarding `CCC1=C[C@@H]2CN(C1)Cc1c([nH]c3ccccc13)[C@@](C(=O)OC)(c1cc3c(cc1OC)N(C)[C@H]1[C@@](O)(C(=O)OC)[C@H](OC(C)=O)[C@]4(CC)C=CCN5CC[C@]31[C@@H]54)C2`, the MRT was 18 h, the Vd was 23 L/kg, the clearance is 20 mL/min/kg and the half-life is 26 h. In addition, the fraction unbound is 0.87.
On to `C1COC(NC(C2CC2)C2CC2)=N1`, for which the MRT was 10.6 h, the Vd is 4.5 L/kg, the clearance is 7.1 mL/min/kg and the half-life is 8.3 h. The fraction unbound was 0.9.
For `CC[C@H](C)[C@H]1NC(=O)C(NC(=O)C(CC(C)C)N(C)C(=O)C2CCCN2C(=O)C(C)=O)[C@@H](C)OC(=O)C(Cc2ccc(OC)cc2)N(C)C(=O)C2CCCN2C(=O)C(CC(C)C)NC(=O)C(C)C(=O)C(C(C)C)OC(=O)C[C@@H]1O` (stereo partly drawn) (Pyruvoyl-[ξP][ξNMeL][ξThr(3R)(O-yl)][X2][ξL][ξP][ξNMeY](Me); ester 3-C), the MRT was 14.5 h, the Vd was 6.95 L/kg, the clearance is 8.05 mL/min/kg and the half-life is 16.6 h.
With `C#CCN(Cc1cc2c(=O)nc(C)[nH]c2cc1C)c1ccc(C(=O)NC(CCc2nnn[nH]2)C(=O)O)c(F)c1` (centres undefined), the MRT is 30.4 h, the Vd was 0.53 L/kg, the clearance is 0.29 mL/min/kg and the half-life was 78.5 h. Besides, the fraction unbound was 0.01.
Regarding `Cc1cccc(N2CC(CO)OC2=O)c1` (centres undefined), the MRT is 2.3 h, the Vd was 1.5 L/kg, the clearance is 11 mL/min/kg and the half-life was 1.6 h. Also, the fraction unbound is 0.49.
Regarding `CN(C)[C@@H]1C(O)=C(C(N)=O)C(=O)[C@@]2(O)C(O)=C3C(=O)c4c(O)ccc(Cl)c4[C@@H](O)[C@H]3C[C@@H]12`, the MRT was 17 h, the Vd was 1.3 L/kg, the clearance was 1.1 mL/min/kg and the half-life is 12 h. For the same compound, the fraction unbound was 0.59.
For the compound `C[C@@H](O)C1C(=O)N2C(C(=O)O)=C(S[C@H]3CC(C(=O)N4CC[C@H](NC(=O)CNC(=N)N)C4)N(C)C3)[C@H](C)[C@H]12` (some centres undefined), the MRT is 2 h, the distribution volume (Vd) was 0.23 L/kg, the clearance was 1.9 mL/min/kg and the half-life was 1.7 h. The fraction unbound was 0.91.
Take `CN(C)C[C@H](c1ccc(O)cc1)C1(O)CCCCC1`: the MRT was 11.8 h, the Vd is 3.5 L/kg, the clearance is 4.9 mL/min/kg and the half-life was 8.4 h. Moreover, the fraction unbound is 0.7.
Consider `COc1cc(N)cn[n+]1-c1ccccc1`, for which the mean residence time MRT is 13 h, the Vd was 4 L/kg, the clearance was 5.1 mL/min/kg and the half-life was 14.1 h.
Turning to `NC(=O)c1cccc(N)c1`, the MRT was 4 h, the Vd was 1.9 L/kg, the clearance is 7.9 mL/min/kg and the half-life is 5 h.
Regarding `CN(C)C(=O)Oc1ccc[n+](C)c1`, the MRT is 1.8 h, the Vd is 1.1 L/kg, the clearance was 9.6 mL/min/kg and the half-life is 1.5 h.
`CCOC(=O)Nc1ccc(NCc2ccc(F)cc2)nc1N`: the MRT is 11 h, the Vd is 1.1 L/kg, the clearance was 1.6 mL/min/kg and the half-life is 8.5 h.
`CCOc1cc([C@@H](CS(C)(=O)=O)N2C(=O)c3cccc(CC(C)=O)c3C2=O)ccc1OC`: the clearance was 2.38 mL/min/kg, the half-life is 6.03 h and the fraction unbound was 0.32.
For the compound `C/C(=C\c1csc(C)n1)[C@@H]1C[C@@H]2O[C@]2(C)CCC[C@H](C)[C@H](O)C(C)C(=O)C(C)(C)[C@@H](O)CC(=O)O1` (some centres undefined), the MRT is 111 h, the Vd is 14.4 L/kg, the clearance is 2.17 mL/min/kg and the half-life was 92.3 h. Besides, the fraction unbound is 0.22.
Regarding `N=C(N)N1CCC[C@@H](CNC(=O)CC(NS(=O)(=O)c2ccc3ccccc3c2)C(=O)N(CC(=O)O)C2CC2)C1` (some centres undefined), the mean residence time (MRT) is 0.94 h, the Vd is 0.36 L/kg, the half-life is 1.9 h and the fraction unbound was 0.55.
For the compound `CCCCC[C@@H](O)CC[C@H]1[C@@H]2Cc3cccc(OCC(=O)O)c3C[C@@H]2C[C@@H]1O`, the MRT is 0.36 h, the Vd was 0.23 L/kg, the clearance is 10.7 mL/min/kg and the half-life was 0.82 h. Moreover, the fraction unbound was 0.09.
Take `NS(=O)(=O)c1cc(C(=O)O)cc(N2CCCC2)c1Oc1ccccc1`: the MRT was 0.91 h, the distribution volume (Vd) was 0.17 L/kg, the clearance is 3.1 mL/min/kg and the half-life was 1.3 h. The unbound share (fraction unbound) was 0.058.
`CC(C)=c1nc(N(C)S(C)(=O)=O)nc(-c2ccc(F)cc2)c1=CC[C@@H](O)C[C@@H](O)CC(=O)O`: the MRT is 2.6 h, the Vd is 1.7 L/kg, the clearance is 11 mL/min/kg and the half-life was 2 h.
Turning to `CC(C)[N+]1(C)[C@@H]2CC[C@H]1CC(OC(=O)C(CO)c1ccccc1)C2` (some centres undefined), the MRT is 2.7 h.
`CC(=O)C[C@H](c1ccc([N+](=O)[O-])cc1)c1c(O)c2ccccc2oc1=O`: the MRT is 3.12 h, the Vd was 0.24 L/kg, the clearance was 1.28 mL/min/kg and the half-life was 7.22 h. Further, the fraction unbound is 0.02.
In the case of `CC(C)NC[C@H](O)COc1ccc(O)cc1`, the MRT is 3.23 h, the volume of distribution (Vd) is 4.28 L/kg, the clearance is 22.1 mL/min/kg and the half-life was 2.85 h.
With `Oc1cccc(-c2c3nc(c(-c4cccc(O)c4)c4ccc([nH]4)c(-c4cccc(O)c4)c4ccc([nH]4)c(-c4cccc(O)c4)c4nc2CC4)C=C3)c1`, the clearance is 0.06 mL/min/kg, the half-life is 91.5 h and the free fraction (fraction unbound) is 0.14.
